The values that follow are results of earlier work, collected in patent US20180369425A1, “LINKED AND OTHER pH-TRIGGERED COMPOUNDS” (priority 2017, published 2018).

The conditions of series [1]: solvents listed; cited from earlier work.
The test system of a further series is HeLa cells. As to conditions: two hours, up to 2 μM; cited from earlier work.

For `C#CCNC(=O)CCCCC[N+]1=C(/C=C/C=C/C=C/C=C2\N(CCCCS(=O)(=O)[O-])c3ccc4ccccc4c3C2(C)C)C(C)(C)c2c1ccc1ccccc21` [ICG-alkyne], in series [1], the Solubility result is reported as “DMSO, DMF, Acetonitrile, Methanol”.
For amanitin, the “cell death with amanitin alone” value with HeLa cells is recorded as “does not induce cell death”.
